Results from patent EP2380575B1, “Eslicarbazepine acetate and use” (Bial-Portela & CA, S.A., priority 2005, dated 2006).
Where two headings read alike, the source gives them in different places.

What was measured:
[1] = Study in epileptic patients: trough plasma concentrations of BIA 2-005; type: in vivo, humans
Excerpt: This clinical trial was a double-blind, randomized, placebo-controlled study performed by 20 centers in Croatia, Czech Republic, Germany, Lithuania and Poland. The stated objectives of the study were to assess the efficacy and safety of BIA 2-093 as adjunctive therapy in patients with refractory partial epilepsy. In total, 143 patients aged 18-65 years with at least 4 partial-onset seizures per month in spite of treatment with 1 or 2 antiepileptic drugs (AEDs) (e.g., phenytoin, valproate, primidone, phenobarbital, lamotrigine, gabapentin, topiramate or clonazepam) were randomly assigned to one of three groups: treatment with placebo (n=47), BIA 2-093 once-daily (n=50), or BIA 2-093 twice-daily (n=46), during 12 weeks (plus 1 week of tapering off). For the first 4 weeks, daily dose was 400 mg. Then, daily doses were increased to 800 mg (weeks 5-8), and finally to 1200 mg (weeks 9-12). […] See, e.g., Almeida I and Almeida II.
Plasma/serum samples for the "trough" (pre-dose) levels of BIA 2-005 and concomitant AEDs were collected at all visits but V5 (post-study visit). The objective was to characterize the influence of eslicarbazepine acetate on the pharmacokinetic behavior of the concomitant AEDs (e.g., phenytoin, valproate, primidone, phenobarbital, lamotrigine, gabapentin, topiramate, and clonazepam). […] Table 1: Trough plasma concentrations of BIA 2-005 following oral administration of eslicarbazepine acetate once-daily (o.d.) and twice-daily (b.i.d)

[2] = Metabolic profile in liver microsomes, chiral analysis; type: in vitro ADME; details: liver microsomes from rats, dogs, monkeys and humans, not the R(-) form
[3] = test system: patients with refractory partial epilepsy; experiment: Study in epileptic patients: efficacy as adjunctive therapy; type: in vivo, humans; details: for reduction in the number of seizures: versus baseline; for proportion of responders (50% or greater reduction in seizure frequency vs baseline): ITT
Experimental: The effects of eslicarbazepine acetate in humans was studied in at least the following clinical studies. In the first study, a placebo-controlled therapeutic exploratory study, once-daily and twice-daily dosing was compared in epileptic patients refractory to standard anti-epileptic drug therapy. In the second study, healthy subjects received either a once-daily (o.d.) oral dose of 900 mg of eslicarbazepine acetate or a twice-daily (b.i.d.) dose of 450 mg of eslicarbazepine acetate. In the third study, healthy subjects received single oral doses of eslicarbazepine acetate ranging from 20 mg to 2400 mg, and repeated once-daily (o.d.) oral doses ranging from 400 mg to 2400 mg of eslicarbazepine acetate. This clinical trial was a double-blind, randomized, placebo-controlled study performed by 20 centers in Croatia, Czech Republic, Germany, Lithuania and Poland. The stated objectives of the study were to assess the efficacy and safety of BIA 2-093 as adjunctive therapy in patients with refractory partial epilepsy. […] For the first 4 weeks, daily dose was 400 mg. Then, daily doses were increased to 800 mg (weeks 5-8), and finally to 1200 mg (weeks 9-12). […] See, […] and Almeida II. The proportion of patients with a 50% or greater reduction in seizure frequency in the treatment period compared to the baseline period in the intention-to-treat (ITT) population (n=143) was the primary efficacy endpoint. […] The proportion of responders in the once-daily group (54%) was also higher than in the twice-daily (41%) group. […] At this dose level, no significant difference was found between the twice-daily and the placebo groups. Secondary endpoints include the reduction in total seizure frequency, proportion of seizure-free patients, distribution of responders, comparison of once and twice daily regimens, and investigator's and patient's global evaluation.

[4] = Trial B: pharmacokinetics following single and repeated doses in healthy young male subjects; type: in vivo, humans; details: in a minor extent to R-licarbazepine
Experimental: The study integrated the results of three double-blind, randomized, placebo-controlled trials. To measure the pharmacokinetics of eslicarbazepine acetate following single doses, oral single doses of eslicarbazepine acetate ranging from 20 mg to 2400 mg were administered to healthy young male subjects (6 subjects per dose). The pharmacokinetics of eslicarbazepine acetate following repeated doses were measured by administering repeated oral doses ranging from 400 mg to 2400 mg of eslicarbazepine acetate to healthy young male subjects (6 subjects per dose) over a period of 8 days. Analytical test methods and experimental procedures were similar to those described for Trial A above.

[5] = test system: voltage-gated sodium channel (VGSC); details: compared with carbamazepine; cited from earlier work
[6] = after oral administration; below LOQ of the assay; cited from earlier work
[7] = not given; remark: listed apart in the source

Compound: NC(=O)N1c2ccccc2CC(O)c2ccccc21 (stereo not drawn) [BIA 2-005]
- Trough plasma concentration, Mean (sd) ([1]; 400 mg/day eslicarbazepine acetate, b.i.d. group): 4.9(2.3) µg/mL
- Trough plasma concentration, Mean (sd) ([1]; 400 mg/day eslicarbazepine acetate, o.d. group): 4.0 (3.2) µg/mL
- Trough plasma concentration, Mean (sd) ([1]; 800 mg/day eslicarbazepine acetate, b.i.d. group): 13.5 (9.6) µg/mL
- Trough plasma concentration, Mean (sd) ([1]; 800 mg/day eslicarbazepine acetate, o.d. group): 10.7(7.0) µg/mL
- Trough plasma concentration, Mean (sd) ([1]; 1200 mg/day eslicarbazepine acetate, b.i.d. group): 15.5 (8.8) µg/mL
- Trough plasma concentration, Mean (sd) ([1]; 1200 mg/day eslicarbazepine acetate, o.d. group): 14.6 (8.8) µg/mL
- extent of systemic exposure versus dose (oral eslicarbazepine acetate, healthy subjects): approximately dose-proportional
- total amount recovered in the urine (within 12 hours post-dose): about 20%
- total amount recovered in the urine (within 24 hours post-dose): ~40%

Compound: CC(=O)O[C@H]1Cc2ccccc2N(C(N)=O)c2ccccc21 [eslicarbazepine acetate]
- metabolite formed in liver microsomes [2]: S(+) enantiomer of licarbazepine
- reduction in the number of seizures ([3]; 400 mg once-daily): 38.9%
- reduction in the number of seizures ([3]; 400 mg twice-daily): 20.2%
- reduction in the number of seizures ([3]; 800 mg once-daily): 55.8%
- reduction in the number of seizures ([3]; 800 mg twice-daily): 38.1%
- proportion of responders (50% or greater reduction in seizure frequency vs baseline) ([3]; 800 mg/day (weeks 5-8), once-daily group): 58%
- proportion of responders (50% or greater reduction in seizure frequency vs baseline) ([3]; 800 mg/day (weeks 5-8), twice-daily group): 33%
- reduction in the number of seizures ([3]; 1200 mg once-daily): 59.5%
- reduction in the number of seizures ([3]; 1200 mg twice-daily): 47.5%
- proportion of responders (50% or greater reduction in seizure frequency vs baseline) ([3]; 1200 mg/day (weeks 9-12), once-daily group): 54%
- proportion of responders (50% or greater reduction in seizure frequency vs baseline) ([3]; 1200 mg/day (weeks 9-12), twice-daily group): 41%
- patients seizure-free ([3]; end of the 12-week treatment phase, once-daily group): 27.9%
- assessment of efficacy by the investigator (CGI - Clinical Global Impression) and of acceptability by patient ([3]; once-daily group compared with the other groups): rated best
- metabolism of eslicarbazepine acetate [4]: extensively metabolized to eslicarbazepine
- affinity for the resting state of the channel, lower than that of carbamazepine [5]: about 3 fold
- plasma concentrations of the parent drug [6]: < 10 ng/mL
- metabolism of eslicarbazepine acetate ([7]; in a minor extent to R-licarbazepine): extensively metabolized to eslicarbazepine
- plasma concentrations of parent drug ([7]; limit of quantification 10 ng/mL): below the limit of quantification
